Laboratory results from article PMC5403252 (Pharmacology, biochemistry, and behavior, 2016).
Structures can show the parent of a compound that is named as a salt. Where two headings read alike, the source gives them in different places.

Key:
5-HT2A [1] = conditions: rats; ref Bedard and Pycock 1977; Matthews and Smith 1980; cited from earlier work
Sprague–Dawley rats [2] = assay: Prepulse inhibition; assay type: in vivo, rat
[3] = 10 mg/kg IP; ref Sitaram et al. 1987; cited from earlier work
5-HT2A [4] = conditions: cited from earlier work
5-HT uptake = conditions: ref Berge et al. 1983; Chang et al. 1993; Nagai et al. 2007; cited from earlier work
[5] = 5-MeO-DMT and bufotenine levels in whole brain by LC-ESI-SRM-MS/MS; assay type: in vivo, rat; conditions: for Cmax: rat, whole brain, sc, 1 mg/kg, Cmax of 5-MeO-DMT in whole brain
Sprague–Dawley rats [6] = assay: Acoustic startle: startle magnitude; assay type: in vivo, rat
[7] = 5-MeO-DMT and bufotenine levels in plasma by LC-ESI-SRM-MS/MS; assay type: in vivo, rat; conditions: for AUC / Cmax: rat, plasma, sc, 1 mg/kg, 1 mg/kg SC; for AUC: plasma AUC20→70 min for 5-MeO-DMT, trapezoidal rule; for Cmax: plasma Cmax of 5-MeO-DMT
Sprague–Dawley rats [8] = assay: Behavioral Pattern Monitor locomotor activity; assay type: in vivo, rat; conditions: 5-MeO-DMT 1 mg/kg SC, clorgyline 0.3 mg/kg pretreatment; fifth 10-min time block, p<0.05
[9] = after SC administration of 1 mg/kg
[10] = clorgyline 0.3 mg/kg pretreatment

For COc1ccc2[nH]cc(CCN(C)C)c2c1 [5-MeO-DMT, 5-Methoxy-N,N-dimethyltryptamine], the “doses eliciting the head twitch response (HTR)” value (5-HT2A [1]) is given as 0.2 to 1 mg/kg, the “Effect on PPI” value (Sprague–Dawley rats [2]; 5-MeO-DMT 1.0 mg/kg SC in animals pretreated with clorgyline 0.3 mg/kg, 45 min, all three prepulse intensities, p<0.01) is given as “significantly reduced PPI” and the “Effect on PPI” value (Sprague–Dawley rats [2]; 5-MeO-DMT 1 mg/kg SC in animals pretreated with pargyline 10 mg/kg, 45 min, all three prepulse intensities, p<0.01) is given as “significantly reduced PPI”. The “Effect on PPI” value (Sprague–Dawley rats [2]; 5-MeO-DMT 1.0 mg/kg SC, saline-pretreated animals, 45 min, experiment 2) was “did not alter PPI”, the “Effect on PPI” value (Sprague–Dawley rats [2]; 5-MeO-DMT 0.1 or 1.0 mg/kg SC, saline-pretreated animals, tested 45 min post-injection, experiment 1) was “did not alter PPI” and the “increase of 5-MeO-DMT blood levels by iproniazid” value [3] was 40 fold. The “increase of 5-MeO-DMT brain levels by iproniazid” value [3] was ~100 fold, the “concentration of 5-MeO-DMT required to activate 5-HT2A” value (5-HT2A [4]; ref Blair et al. 2000, Parrish and Nichols 2006) was “low micromolar range” and the “concentration of 5-MeO-DMT required to activate 5-HT2A” value (5-HT2A [4]; ref Newton et al. 1996, Rabin et al. 2002, Kurrasch-Orbaugh et al. 2003, Strachan et al. 2010) was “several hundred nanomolar”. The “concentrations inhibiting 5-HT uptake” value (5-HT uptake) was “low micromolar concentrations”, the “peak level of 5-MeO-DMT in the brain” value ([5]; 1 mg/kg SC, no MAO inhibitor) was 144.3 nM and the “time at which level of 5-MeO-DMT in brain peaked” value [5, 9] was ≤ 20 min. The Cmax ([5]; 1 mg/kg SC, clorgyline 0.3 mg/kg pretreatment) was 634 ± 146 ng/g, the Cmax ([5]; 1 mg/kg SC, vehicle pretreatment) was 30.3 ± 11.2 ng/g and the “Startle magnitude (mean±SEM)” value (Sprague–Dawley rats [6]; clorgyline 0.3 mg/kg pretreatment, 5-MeO-DMT 1.0 mg/kg SC, 45 min, experiment 2, n=12) was 544.45±62.88. For the same molecule, the “Startle magnitude (mean±SEM)” value (Sprague–Dawley rats [6]; vehicle pretreatment, 5-MeO-DMT 0.1 mg/kg SC, tested 45 min post-injection, experiment 1, n=10) was 180.58±37.92, the “Startle magnitude (mean±SEM)” value (Sprague–Dawley rats [6]; vehicle pretreatment, 5-MeO-DMT 1.0 mg/kg SC, 45 min, experiment 1, n=10) was 274.12±56.96 and the “time at which level of 5-MeO-DMT in plasma peaked” value [7, 9] was ≤ 20 min. It also gave an AUC [7, 10] of 31.4 ± 2.3 ng·h/mL, an AUC ([7]; vehicle pretreatment) of 12.2 ± 1.7 ng·h/mL and a Cmax [7, 10] of 78.1 ± 9.5 ng/mL. For the same molecule, the Cmax ([7]; vehicle pretreatment) was 52.7 ± 11.8 ng/mL and the “Crossings (locomotor activity) versus vehicle pretreatment” value (Sprague–Dawley rats [8]) was “significantly more crossings”.

For C#CCN(C)CCCOc1ccc(Cl)cc1Cl.Cl [Clorgyline, N-methyl-N-propargyl-3-(2,4-dichlorophenoxy)-propylamine HCl], the “Startle magnitude (mean±SEM)” value (Sprague–Dawley rats [6]; clorgyline 0.3 mg/kg SC pretreatment, vehicle treatment, experiment 2, n=12) was 422.31±78.47.

For OC(c1ccccc1)C1CCN(CCc2ccccc2)CC1 (stereo not drawn) [MDL 11,939, α-Phenyl-1-(2-phenylethyl)-4-piperidinemethanol], the “Effect of pretreatment on ability of pargyline and 5-MeO-DMT to reduce PPI” value (Sprague–Dawley rats [2]; MDL 11,939 0.3 mg/kg pretreatment, p<0.01, Tukey's test) was “significantly attenuated” and the “Startle magnitude (mean±SEM)” value (Sprague–Dawley rats [6]; MDL 11,939 0.3 mg/kg pretreatment, pargyline 10 + 5-MeO-DMT 1.0 mg/kg, experiment 3, n=10) was 419.79±48.30.

In the case of C#CCN(C)Cc1ccccc1 [Pargyline, pargyline HCl], the “Effect on PPI” value (Sprague–Dawley rats [2]; pargyline 10 mg/kg alone compared with vehicle pretreatment) is reported as “did not significantly reduce PPI” and the “Startle magnitude (mean±SEM)” value (Sprague–Dawley rats [6]; pargyline 10 mg/kg SC pretreatment, vehicle treatment, experiment 1, n=10) is reported as 167.66±22.30.

With COc1ccccc1N1CCN(CCN(C(=O)C2CCCCC2)c2ccccn2)CC1.O=C(O)/C=C\C(=O)O [WAY-100635, N-[2-[4-(2-methoxyphenyl)-1-piperazinyl]ethyl]-N-2-pyridinylcyclohexanecarboxamide maleate] the “Effect of pretreatment on reduction of PPI produced by 10 mg/kg pargyline and 1 mg/kg 5-MeO-DMT” value (Sprague–Dawley rats [2]; WAY-100,635 1 mg/kg pretreatment, p<0.01, Tukey's test) was “significantly antagonized”, the “Startle magnitude (mean±SEM)” value (Sprague–Dawley rats [6]; WAY-100635 1.0 mg/kg SC pretreatment, vehicle treatment, experiment 3, n=10) was 271.30±51.26 and the “Startle magnitude (mean±SEM)” value (Sprague–Dawley rats [6]; WAY-100635 1.0 mg/kg pretreatment, pargyline 10 + 5-MeO-DMT 1.0 mg/kg, experiment 3, n=10) was 172.03±47.00.
